Test results published in the supplement of paper PMC10307832.

How the values were obtained:
Assay in all cases: relative viability (nuclei count vs DMSO), 5 days (fraction); higher = more cells survive
IPA-3 + Luminespib = compound: C1=CC=C2C(=C1)C=CC(=C2SSC3=C(C=CC4=CC=CC=C43)O)O [IPA-3] + CCNC(=O)c1noc(-c2cc(C(C)C)c(O)cc2O)c1-c1ccc(CN2CCOCC2)cc1 [Luminespib] (partner 0.01 µM)
In short: (§1)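 Lung cancer cell lines were seeded in 1536-well plates and dosed by pin tool the next day, with either a single drug or a fixed anchor-drug dose combined with five library-drug doses (not always all listed) spaced in √10 steps. Five days later, one step fixed the cells and stained their nuclei (final 0.05% Triton X-100, 1% formaldehyde, 1 ug/ml Hoechst), and nuclei were counted on 4× images. Relative viability is the nuclei count in treated wells divided by the count in vehicle wells, and each value is the median of duplicate plates.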

IPA-3 + Pemetrexed = compound: C1=CC=C2C(=C1)C=CC(=C2SSC3=C(C=CC4=CC=CC=C43)O)O [IPA-3] + Nc1nc2[nH]cc(CCc3ccc(C(=O)N[C@@H](CCC(=O)O)C(=O)O)cc3)c2c(=O)[nH]1 [Pemetrexed] (partner 0.2 µM)
In short: as §1

Doramapimod + Foretinib = compound: Cc1ccc(-n2nc(C(C)(C)C)cc2NC(=O)Nc2ccc(OCCN3CCOCC3)c3ccccc23)cc1 [Doramapimod] + COc1cc2c(Oc3ccc(NC(=O)C4(C(=O)Nc5ccc(F)cc5)CC4)cc3F)ccnc2cc1OCCCN1CCOCC1 [Foretinib] (partner 0.25 µM)
In short: as §1

RAF265 + OSI-027 = compound: Cn1c(Nc2ccc(C(F)(F)F)cc2)nc2cc(Oc3ccnc(-c4ncc(C(F)(F)F)[nH]4)c3)ccc21 [RAF265] + COc1cccc2cc(-c3nc([C@H]4CC[C@H](C(=O)O)CC4)n4ncnc(N)c34)[nH]c12 [OSI-027] (partner 0.5 µM)
In short: as §1

Cell Line | relative viability (IPA-3 + Luminespib; first compound 0.2 µM) | relative viability (IPA-3 + Luminespib; first compound 0.6325 µM) | relative viability (IPA-3 + Luminespib; first compound 2 µM) | relative viability (IPA-3 + Luminespib; first compound 6.325 µM) | relative viability (IPA-3 + Luminespib; first compound 20 µM) | relative viability (IPA-3 + Pemetrexed; first compound 0.2 µM) | relative viability (IPA-3 + Pemetrexed; first compound 0.6325 µM) | relative viability (IPA-3 + Pemetrexed; first compound 2 µM) | relative viability (IPA-3 + Pemetrexed; first compound 6.325 µM) | relative viability (IPA-3 + Pemetrexed; first compound 20 µM) | relative viability (Doramapimod + Foretinib; first compound 0.02 µM) | relative viability (Doramapimod + Foretinib; first compound 0.06325 µM) | relative viability (Doramapimod + Foretinib; first compound 0.2 µM) | relative viability (Doramapimod + Foretinib; first compound 0.6325 µM) | relative viability (Doramapimod + Foretinib; first compound 2 µM) | relative viability (RAF265 + OSI-027; first compound 0.01 µM) | relative viability (RAF265 + OSI-027; first compound 0.03162 µM) | relative viability (RAF265 + OSI-027; first compound 0.1 µM) | relative viability (RAF265 + OSI-027; first compound 0.3162 µM) | relative viability (RAF265 + OSI-027; first compound 1 µM)
NCI-H2170 | 0.691 | 0.574 | 0.772 | 0.748 | 0.683 | 0.254 | 0.28 | 0.243 | 0.28 | 0.273 | 0.996 | 0.985 | 1 | 1.05 | 1.01 | 0.74 | 0.512 | 0.623 | 0.333 | 0.452
HCC-366 | – | – | – | – | – | 0.192 | 0.147 | 0.21 | 0.169 | 0.178 | 0.617 | 0.874 | 0.899 | 0.876 | 0.821 | 1.04 | 0.939 | 0.834 | 0.165 | 0.107
NCI-H2347 | 0.525 | 0.0323 | 0.357 | 0.269 | 0.45 | 0.418 | 0.416 | 0.76 | 0.452 | 0.433 | – | 1.03 | 1.1 | 0.861 | 1.11 | 0.418 | 0.341 | 0.44 | 0.35 | 0.278
COR-L 105 | 0.866 | 0.858 | 0.771 | 0.826 | 0.97 | 1.22 | 0.904 | 1.07 | 1.18 | 1.14 | 1.03 | 0.834 | 1.04 | 1.34 | 0.917 | 0.798 | 0.676 | 0.608 | 0.315 | 0.43
201T | 1.07 | 1.02 | 1.08 | 1.05 | 1.14 | 0.311 | 0.349 | 0.373 | 0.295 | 0.338 | 1.01 | 1.03 | 1.1 | 1.41 | 0.974 | 0.794 | 0.799 | 0.788 | 0.58 | 0.351
NCI-H2126 | 0.998 | 0.819 | 0.921 | 0.902 | 1.1 | 0.726 | 0.706 | 0.721 | 0.678 | 0.712 | 1.21 | 0.988 | 1.14 | 1.34 | 1.2 | 0.77 | 0.724 | 0.718 | 0.582 | 0.437
LC-2-ad | 1.21 | 1.06 | 1.07 | 1.04 | 1.05 | 0.294 | 0.28 | 0.285 | 0.281 | 0.307 | 0.927 | 0.882 | 0.865 | 0.559 | 0.807 | 0.969 | 0.798 | 0.902 | 0.442 | 0.378
NCI-H2085 | 0.475 | 0.411 | 0.502 | 0.432 | 0.5 | 0.89 | 0.828 | 0.864 | 0.821 | 0.993 | 1.03 | 0.85 | 0.707 | 1.21 | 1.03 | 0.948 | 0.68 | 0.841 | 0.552 | 0.83
NCI-H358 | 0.535 | 0.313 | 0.265 | 0.385 | 0.255 | 0.168 | 0.172 | 0.159 | 0.162 | 0.158 | 0.579 | 0.563 | 0.682 | 0.826 | 0.63 | 0.864 | 0.617 | 0.305 | 0.194 | 0.18
H3255 | 1.03 | 0.757 | 0.782 | 0.871 | 0.889 | 0.572 | 0.551 | 0.561 | 0.527 | 0.548 | 0.844 | 0.883 | 0.945 | 0.637 | 0.726 | 0.741 | 0.601 | 0.563 | – | 0.473
NCI-H2228 | 0.155 | 0.181 | 0.183 | 0.175 | 0.145 | 0.369 | 0.334 | 0.336 | 0.354 | 0.341 | 0.723 | 0.87 | 0.825 | 0.764 | 0.723 | 0.499 | 0.476 | 0.344 | 0.184 | 0.121
CAL-12T | 0.724 | 0.287 | 0.449 | 0.375 | 0.488 | 1.21 | 0.983 | 0.942 | 1.26 | 1.24 | 1.11 | 1.15 | 1.03 | 1.1 | 0.983 | 0.633 | 0.45 | 0.313 | 0.281 | 0.327
A-427 | 1.02 | 0.855 | 0.999 | 0.803 | 1.02 | 1.06 | 1.01 | 0.998 | 0.903 | 0.982 | 1.02 | 1.15 | 1.12 | – | 0.997 | 0.4 | 0.334 | 0.312 | 0.18 | 0.129
HARA | 0.991 | 0.767 | 0.0423 | 0.889 | 1.08 | 0.298 | 0.227 | 0.249 | 0.229 | 0.24 | 0.88 | 0.841 | 0.767 | – | 0.746 | 0.491 | 0.417 | 0.423 | 0.187 | 0.101
NCI-H1793 | 0.192 | 0.381 | 0.14 | 0.462 | 0.16 | 1.33 | 0.736 | 0.927 | 0.923 | 0.632 | 0.618 | 0.752 | 0.822 | 0.865 | 0.597 | 0.308 | 0.297 | 0.224 | – | 0.188
NCI-H1623 | 0.574 | 0.481 | 0.675 | 0.516 | 0.556 | – | – | – | – | – | 0.95 | 0.791 | 0.86 | 0.743 | 0.746 | 0.462 | 0.43 | 0.467 | 0.291 | 0.364
